# Laboratory results taken from PubChem BioAssay (NCI).
#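 1) Cells in 96-well plates. 2) Compound, 48 h, 5 concentrations. 3) Linear interpolation between surrounding doses. 4) Unreached endpoint = highest concentration. The concentration for 50% growth inhibition is given as GI50. TGI denotes the concentration required for complete inhibition of growth.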
# Legend:
# Test in all cases: NCI-60 cell line screen, 48 h
# 786-0 renal = tested on: 786-0 renal
# A498 renal = tested on: A498 renal
# A549 NSCLC = tested on: A549 NSCLC
# ACHN renal = tested on: ACHN renal
# BT-549 breast = tested on: BT-549 breast
# CAKI-1 renal = tested on: CAKI-1 renal
# CCRF-CEM leukemia = tested on: CCRF-CEM leukemia
# COLO 205 colon = tested on: COLO 205 colon
# DU-145 prostate = tested on: DU-145 prostate
# EKVX NSCLC = tested on: EKVX NSCLC
# HCC-2998 colon = tested on: HCC-2998 colon
# HCT-116 colon = tested on: HCT-116 colon
# HCT-15 colon = tested on: HCT-15 colon
# HL-60(TB) leukemia = tested on: HL-60(TB) leukemia
# HOP-62 NSCLC = tested on: HOP-62 NSCLC
# HOP-92 NSCLC = tested on: HOP-92 NSCLC
# HS 578T breast = tested on: HS 578T breast
# HT29 colon = tested on: HT29 colon
# IGROV1 ovarian = tested on: IGROV1 ovarian
# K-562 leukemia = tested on: K-562 leukemia
# KM12 colon = tested on: KM12 colon
# LOX IMVI melanoma = tested on: LOX IMVI melanoma
# M14 melanoma = tested on: M14 melanoma
# MALME-3M melanoma = tested on: MALME-3M melanoma
# MCF7 breast = tested on: MCF7 breast
# MDA-MB-231 breast = tested on: MDA-MB-231 breast
# MDA-MB-435 = tested on: MDA-MB-435
# MDA-MB-468 breast = tested on: MDA-MB-468 breast
# MOLT-4 leukemia = tested on: MOLT-4 leukemia
# NCI-H226 lung = tested on: NCI-H226 lung
# NCI-H23 lung = tested on: NCI-H23 lung
# NCI-H460 lung = tested on: NCI-H460 lung
# NCI-H522 lung = tested on: NCI-H522 lung
# NCI/ADR-RES ovarian = tested on: NCI/ADR-RES ovarian
# OVCAR-3 ovarian = tested on: OVCAR-3 ovarian
# OVCAR-4 ovarian = tested on: OVCAR-4 ovarian
# OVCAR-5 ovarian = tested on: OVCAR-5 ovarian
# OVCAR-8 ovarian = tested on: OVCAR-8 ovarian
# PC-3 prostate = tested on: PC-3 prostate
# RPMI-8226 leukemia = tested on: RPMI-8226 leukemia
# RXF 393 renal = tested on: RXF 393 renal
# SF-268 CNS = tested on: SF-268 CNS
# SF-295 CNS = tested on: SF-295 CNS
# SF-539 CNS = tested on: SF-539 CNS
# SK-MEL-2 melanoma = tested on: SK-MEL-2 melanoma
# SK-MEL-28 melanoma = tested on: SK-MEL-28 melanoma
# SK-MEL-5 melanoma = tested on: SK-MEL-5 melanoma
# SK-OV-3 ovarian = tested on: SK-OV-3 ovarian
# SN12C renal = tested on: SN12C renal
# SNB-19 CNS = tested on: SNB-19 CNS
# SNB-75 CNS = tested on: SNB-75 CNS
# SR leukemia = tested on: SR leukemia
# SW-620 colon = tested on: SW-620 colon
# T-47D breast = tested on: T-47D breast
# TK-10 renal = tested on: TK-10 renal
# U251 CNS = tested on: U251 CNS
# UACC-257 melanoma = tested on: UACC-257 melanoma
# UACC-62 melanoma = tested on: UACC-62 melanoma
# UO-31 renal = tested on: UO-31 renal
structure (smiles),measurement,setting,value
COc1ccc(/C=C/C(=O)c2ccc(OC)c(S(N)(=O)=O)c2)c(C(F)(F)F)c1,GI50,786-0 renal,3.16 µM
same,TGI,786-0 renal,14.4 µM
same,GI50,A498 renal,18.1 µM
same,TGI,A498 renal,37.8 µM
same,GI50,A549 NSCLC,2990 nM
same,TGI,A549 NSCLC,11.4 µM
same,GI50,ACHN renal,4.28 µM
same,TGI,ACHN renal,15.7 µM
same,GI50,BT-549 breast,5.04 µM
same,TGI,BT-549 breast,16.4 µM
same,GI50,CAKI-1 renal,3.82 µM
same,TGI,CAKI-1 renal,14.6 µM
same,GI50,CCRF-CEM leukemia,2950 nM
same,TGI,CCRF-CEM leukemia,9.7 µM
same,GI50,COLO 205 colon,4.76 µM
same,TGI,COLO 205 colon,28.9 µM
same,GI50,DU-145 prostate,3.39 µM
same,TGI,DU-145 prostate,12.8 µM
same,GI50,EKVX NSCLC,3.55 µM
same,TGI,EKVX NSCLC,16.1 µM
same,GI50,HCC-2998 colon,10.7 µM
same,TGI,HCC-2998 colon,24.2 µM
same,GI50,HCT-116 colon,2410 nM
same,TGI,HCT-116 colon,6.14 µM
same,GI50,HCT-15 colon,2320 nM
same,TGI,HCT-15 colon,6.72 µM
same,GI50,HL-60(TB) leukemia,4.7 µM
same,TGI,HL-60(TB) leukemia,30.7 µM
same,GI50,HOP-62 NSCLC,3.23 µM
same,TGI,HOP-62 NSCLC,14.4 µM
same,GI50,HOP-92 NSCLC,11 µM
same,TGI,HOP-92 NSCLC,34.8 µM
same,GI50,HS 578T breast,2840 nM
same,TGI,HS 578T breast,19.1 µM
same,GI50,HT29 colon,3.2 µM
same,TGI,HT29 colon,11.4 µM
same,GI50,IGROV1 ovarian,3.98 µM
same,TGI,IGROV1 ovarian,15.8 µM
same,GI50,K-562 leukemia,3.24 µM
same,TGI,K-562 leukemia,12.6 µM
same,GI50,KM12 colon,3.89 µM
same,TGI,KM12 colon,19 µM
same,GI50,LOX IMVI melanoma,2310 nM
same,TGI,LOX IMVI melanoma,6.97 µM
same,GI50,M14 melanoma,9.19 µM
same,TGI,M14 melanoma,25.2 µM
same,GI50,MALME-3M melanoma,5.96 µM
same,TGI,MALME-3M melanoma,20.6 µM
same,GI50,MCF7 breast,2580 nM
same,TGI,MCF7 breast,10.6 µM
same,GI50,MDA-MB-231 breast,2370 nM
same,TGI,MDA-MB-231 breast,6.14 µM
same,GI50,MDA-MB-435,4.23 µM
same,TGI,MDA-MB-435,19.6 µM
same,GI50,MDA-MB-468 breast,2370 nM
same,TGI,MDA-MB-468 breast,12 µM
same,GI50,MOLT-4 leukemia,2810 nM
same,TGI,MOLT-4 leukemia,13.7 µM
same,GI50,NCI-H226 lung,2110 nM
same,TGI,NCI-H226 lung,5.44 µM
same,GI50,NCI-H23 lung,3.4 µM
same,TGI,NCI-H23 lung,14.2 µM
same,GI50,NCI-H460 lung,2030 nM
same,TGI,NCI-H460 lung,6.2 µM
same,GI50,NCI-H522 lung,2510 nM
same,TGI,NCI-H522 lung,14.3 µM
same,GI50,NCI/ADR-RES ovarian,2610 nM
same,TGI,NCI/ADR-RES ovarian,10.6 µM
same,GI50,OVCAR-3 ovarian,2890 nM
same,TGI,OVCAR-3 ovarian,10.4 µM
same,GI50,OVCAR-4 ovarian,3.47 µM
same,TGI,OVCAR-4 ovarian,15.7 µM
same,GI50,OVCAR-5 ovarian,2210 nM
same,TGI,OVCAR-5 ovarian,6.33 µM
same,GI50,OVCAR-8 ovarian,2340 nM
same,TGI,OVCAR-8 ovarian,6.27 µM
same,GI50,PC-3 prostate,4.57 µM
same,TGI,PC-3 prostate,18.5 µM
same,GI50,RPMI-8226 leukemia,3.48 µM
same,TGI,RPMI-8226 leukemia,> 100 µM
same,GI50,RXF 393 renal,2790 nM
same,TGI,RXF 393 renal,11.4 µM
same,GI50,SF-268 CNS,3.35 µM
same,TGI,SF-268 CNS,16.5 µM
same,GI50,SF-295 CNS,4.37 µM
same,TGI,SF-295 CNS,22.5 µM
same,GI50,SF-539 CNS,1800 nM
same,TGI,SF-539 CNS,3.4 µM
same,GI50,SK-MEL-2 melanoma,3.78 µM
same,TGI,SK-MEL-2 melanoma,15.9 µM
same,GI50,SK-MEL-28 melanoma,11.6 µM
same,TGI,SK-MEL-28 melanoma,23.8 µM
same,GI50,SK-MEL-5 melanoma,3.42 µM
same,TGI,SK-MEL-5 melanoma,15.1 µM
same,GI50,SK-OV-3 ovarian,15.5 µM
same,TGI,SK-OV-3 ovarian,43 µM
same,GI50,SN12C renal,2960 nM
same,TGI,SN12C renal,11.4 µM
same,GI50,SNB-19 CNS,3.95 µM
same,TGI,SNB-19 CNS,16.1 µM
same,GI50,SNB-75 CNS,3.22 µM
same,TGI,SNB-75 CNS,15.4 µM
same,GI50,SR leukemia,3000 nM
same,TGI,SR leukemia,19.5 µM
same,GI50,SW-620 colon,2070 nM
same,TGI,SW-620 colon,6.19 µM
same,GI50,T-47D breast,4.06 µM
same,TGI,T-47D breast,24.7 µM
same,GI50,TK-10 renal,13.4 µM
same,TGI,TK-10 renal,29.9 µM
same,GI50,U251 CNS,2580 nM
same,TGI,U251 CNS,7.32 µM
same,GI50,UACC-257 melanoma,9.28 µM
same,TGI,UACC-257 melanoma,21.9 µM
same,GI50,UACC-62 melanoma,4.7 µM
same,TGI,UACC-62 melanoma,18.1 µM
same,GI50,UO-31 renal,5.14 µM
same,TGI,UO-31 renal,18.4 µM
